For the assay, the target named is T1, human TRPM8 (Homo sapiens, UniProt Q7Z2W7).
T1 construct: expressed in transfected cells
Kind of assay: In Vitro human TRPM8 Functional Assay (intracellular Ca2+, Fluo4, FDSS, menthol activation). The assay is classed as cell-based. Particulars: HEK293 cells stably expressing human TRPM8; activation with L-(-)-Menthol; 11-point dose-response. The essentials: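 Fluo4-loaded HEK293 cells stably expressing TRPM8 were preincubated with compound for 5 min at room temperature, then stimulated with L-menthol (20 μl of 90 μM stock) while fluorescence was read. IC50 values come from 11-point curves fitted to the mean of duplicate wells.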

The record followed here is patent publication US20120094964A1, “SULFAMOYL BENZOIC ACID DERIVATIVES AS TRPM8 ANTAGONISTS” (priority 2009, published 2012).

One may read the IC50 as the concentration at which inhibition is half-maximal. A higher IC50 goes with weaker potency in that assay.

The structures appear in SMILES notation. A value given as a limit tells only on which side of the number the result lay.

T1 sequence (Q7Z2W7 whole entry): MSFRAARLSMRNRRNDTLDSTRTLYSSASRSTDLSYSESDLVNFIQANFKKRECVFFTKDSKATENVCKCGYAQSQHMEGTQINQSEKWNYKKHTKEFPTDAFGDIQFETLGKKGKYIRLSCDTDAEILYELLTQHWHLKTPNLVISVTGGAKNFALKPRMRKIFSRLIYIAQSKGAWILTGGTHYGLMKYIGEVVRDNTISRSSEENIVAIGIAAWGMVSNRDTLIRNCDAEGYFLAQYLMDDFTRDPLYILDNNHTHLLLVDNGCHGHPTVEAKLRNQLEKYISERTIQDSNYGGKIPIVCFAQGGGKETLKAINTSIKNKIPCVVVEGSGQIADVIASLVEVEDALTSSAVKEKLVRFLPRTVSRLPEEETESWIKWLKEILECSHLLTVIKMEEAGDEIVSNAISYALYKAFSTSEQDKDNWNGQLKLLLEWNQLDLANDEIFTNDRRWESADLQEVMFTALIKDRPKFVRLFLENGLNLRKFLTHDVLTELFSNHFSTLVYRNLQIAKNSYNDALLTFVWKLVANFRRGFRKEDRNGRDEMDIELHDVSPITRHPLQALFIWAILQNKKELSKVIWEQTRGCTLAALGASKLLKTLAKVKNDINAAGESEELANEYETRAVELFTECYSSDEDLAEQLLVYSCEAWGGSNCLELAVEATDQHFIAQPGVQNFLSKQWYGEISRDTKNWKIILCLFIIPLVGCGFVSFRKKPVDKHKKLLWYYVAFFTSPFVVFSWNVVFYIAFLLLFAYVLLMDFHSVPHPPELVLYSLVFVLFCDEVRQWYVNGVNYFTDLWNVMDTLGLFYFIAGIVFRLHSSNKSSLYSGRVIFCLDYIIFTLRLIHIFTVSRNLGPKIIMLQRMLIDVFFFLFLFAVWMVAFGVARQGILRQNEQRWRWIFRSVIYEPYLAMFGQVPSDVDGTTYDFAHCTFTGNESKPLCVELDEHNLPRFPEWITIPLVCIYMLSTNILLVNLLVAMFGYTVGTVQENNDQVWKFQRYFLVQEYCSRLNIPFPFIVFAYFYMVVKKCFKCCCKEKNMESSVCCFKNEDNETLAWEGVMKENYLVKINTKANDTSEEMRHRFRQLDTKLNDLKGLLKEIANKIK

Compound `COc1ccc(CN(c2ncc(C(F)(F)F)cc2Cl)S(=O)(=O)c2ccc(C(=O)O)cc2)cc1` [Example 16, 4-(N-(3-Chloro-5-(trifluoromethyl)pyridin-2-yl)-N-(4-methoxybenzyl)sulfamoyl)benzoic acid] returned a concentration for half-maximal inhibition (IC50) of under 1000 nM.

`COc1cccc(N(C(C)c2ccccc2)S(=O)(=O)c2ccc(F)c(Cl)c2)c1` (centres unmarked) [Example 94, 3-Chloro-4-fluoro-N-(3-methoxyphenyl)-N-(1-phenylethyl)benzene-sulfonamide]: the IC50 was in the range of 1000 to 10000 nM. In the case of `O=C(O)c1ccc(S(=O)(=O)N(Cc2ccc(Cl)c(Cl)c2)c2ncc(C(F)(F)F)cc2Cl)cc1` [Example 47, 4-(N-(3-Chloro-5-(trifluoromethyl)pyridin-2-yl)-N-(3,4-dichlorobenzyl)sulfamoyl)benzoic acid] it was under 1000 nM; in that of `O=C(O)c1ccc(S(=O)(=O)N(Cc2ccc(OCC(F)(F)F)cc2)c2ncc(C(F)(F)F)cc2Cl)cc1` [Example 41], under 1000 nM; in that of `O=C(O)c1cccc(S(=O)(=O)N(Cc2ccccc2)c2ccc(Cl)cc2)c1` [Example 115, 3-(N-Benzyl-N-(4-chlorophenyl)sulfamoyl) benzoic acid], 1000 to 10000 nM.

As to `O=C(O)c1ccc(S(=O)(=O)N(Cc2ccc(NC(=O)c3ccccn3)cc2)c2ncc(C(F)(F)F)cc2Cl)cc1` [Example 161, 4-(N-(3-Chloro-5-(trifluoromethyl)pyridin-2-yl)-N-(4-(picolinamido)benzyl)sulfamoyl)benzoic acid], the IC50 is under 1000 nM.

The compound `O=C(O)c1cccc(S(=O)(=O)N(Cc2ccccc2)c2ccccc2Cl)c1` [Example 112, 3-(N-Benzyl-N-(2-chlorophenyl)sulfamoyl) benzoic acid] showed a concentration for half-maximal inhibition (IC50) of 10000 to 30000 nM. For `O=C(O)c1cccc(S(=O)(=O)N(Cc2ccccc2)c2cccc(C(F)(F)F)c2)c1` [Example 111, 3-(N-Benzyl-N-(3-(trifluoromethyl)phenyl)sulfamoyl)benzoic acid] the value was 1000 to 10000 nM.
